Laboratory results published in the supplement of paper PMC13380429.
± gives the standard deviation of the averaged measurements.

Columns and labels:
Conditions in all cases: 72 h
Caco-2 [1] = test: cell viability relative to DMSO; higher = less toxic
Calu-3 [2] = test: as above
HepG2 [3] = test: as above
U2OS [4] = test: as above
Vero E6 [5] = test: as above
Caco-2 [6] = test: relative viability EC50 (midpoint between 100% and the lowest measured viability); higher = less toxic
Calu-3 [7] = test: as above
HepG2 [8] = test: as above
U2OS [9] = test: as above
Vero E6 [10] = test: as above
Caco-2 [11] = test: drug sensitivity score (DSS) for viability; higher = more toxic; extreme values may be limits of the assay
Calu-3 [12] = test: as above
HepG2 [13] = test: as above
U2OS [14] = test: as above
Vero E6 [15] = test: as above

Compound	cell viability (Caco-2 [1]; 1 nM) [%]	cell viability (Caco-2 [1]; 10 nM) [%]	cell viability (Caco-2 [1]; 100 nM) [%]	cell viability (Caco-2 [1]; 1000 nM) [%]	cell viability (Caco-2 [1]; 10000 nM) [%]	cell viability (Calu-3 [2]; 1 nM) [%]	cell viability (Calu-3 [2]; 10 nM) [%]	cell viability (Calu-3 [2]; 100 nM) [%]	cell viability (Calu-3 [2]; 1000 nM) [%]	cell viability (Calu-3 [2]; 10000 nM) [%]	cell viability (HepG2 [3]; 1 nM) [%]	cell viability (HepG2 [3]; 10 nM) [%]	cell viability (HepG2 [3]; 100 nM) [%]	cell viability (HepG2 [3]; 1000 nM) [%]	cell viability (HepG2 [3]; 10000 nM) [%]	cell viability (U2OS [4]; 1 nM) [%]	cell viability (U2OS [4]; 10 nM) [%]	cell viability (U2OS [4]; 100 nM) [%]	cell viability (U2OS [4]; 1000 nM) [%]	cell viability (U2OS [4]; 10000 nM) [%]	cell viability (Vero E6 [5]; 1 nM) [%]	cell viability (Vero E6 [5]; 10 nM) [%]	cell viability (Vero E6 [5]; 100 nM) [%]	cell viability (Vero E6 [5]; 1000 nM) [%]	cell viability (Vero E6 [5]; 10000 nM) [%]	relative viability EC50 (Caco-2 [6]) [µM]	relative viability EC50 (Calu-3 [7]) [µM]	relative viability EC50 (HepG2 [8]) [µM]	relative viability EC50 (U2OS [9]) [µM]	relative viability EC50 (Vero E6 [10]) [µM]	drug sensitivity score (Caco-2 [11])	drug sensitivity score (Calu-3 [12])	drug sensitivity score (HepG2 [13])	drug sensitivity score (U2OS [14])	drug sensitivity score (Vero E6 [15])
Cc1ccc(/C(=C\CN2CCCC2)c2cccc(/C=C/C(=O)O)n2)cc1 [acrivastine]	87.6	92.3	95.4	86.8	115	98.2	98.1	104	116	99.1	102	98.2	102	98.3	95.6	100	103	98.4	102	103	98.1	87.9	99.8	85.3	112	> 10	> 10	> 10	> 10	> 10	0	0	0	0	0
CN1CCC(=C2c3ccccc3CCn3c(C=O)cnc32)CC1 [alcaftadine]	98.1	90.6	93.8	98.5	110	99.3	99.5	100	87.4	105	92.7	97.2	103	101	104	108	101	101	97.7	99.6	89.4	99.4	87.1	91.6	107	> 10	> 10	> 10	> 10	> 10	0	0	0	0	0
C/C=C/c1cc(OC)c(OC)cc1OC [alpha-asarone]	87.7	108	88.3	118	93.5	94.6	99.8	102	94	105	91.3	107	91.9	93.3	90.3	97.3	101	93.9	100	100	109	86.1	99.8	101	104	> 10	> 10	> 10	> 10	> 10	0	0	0	0	0
CC(=O)OCC(=O)[C@@]12OC3(CCCC3)O[C@@H]1C[C@H]1[C@@H]3CCC4=CC(=O)C=C[C@]4(C)[C@@]3(F)[C@@H](O)C[C@@]12C [amcinonide]	104	105	94.6	107	104	101	103	93.9	89.3	97	108	97.1	98.2	91.8	99.8	101	101	92.6	97.2	91.5	102	96.2	99.6	95.6	95.4	> 10	> 10	> 10	> 10	> 10	0	0.3	0	0	0
Nc1ccncc1N [amifampridine]	99.2	97.3	91	91	103	106	96.9	96	98.8	98.1	98.1	96.4	98	93.7	89.6	97.7	95.5	96.1	95	96.9	95.7	100	98.2	97.7	91.8	> 10	> 10	> 10	> 10	> 10	0	0	0	0	0
NCCCCCC(=O)O [aminocaproic-acid]	119	99.3	102	105	109	105	90.6	96.9	91.3	99.4	81.2	95	96.6	94.1	90.9	104	97.1	101	95	98.5	102	106	98.6	109	92.6	> 10	> 10	> 10	> 10	> 10	0	0	0	0	0
O=C(O)C(F)(F)C(F)(F)C(F)(F)C(F)(F)C(F)(F)C(F)(F)C(F)(F)F [ammonium-perfluorocaprylate]	96	96	107	95.4	103	98	110	100	93.6	99.3	113	105	97.3	99.5	102	104	95.2	101	92.7	104	98.2	99.5	99.8	100	96	> 10	> 10	> 10	> 10	> 10	0	0	0	0	0
CC(=O)Nc1ccc(OC[C@](C)(O)C(=O)Nc2ccc([N+](=O)[O-])c(C(F)(F)F)c2)cc1 [andarine]	97.4	98.6	87.3	93.5	99.2	93.1	98.1	90.2	105	90.3	105	98.8	100	103	99	97.9	102	94.8	98	93.9	101	104	101	96.3	100	> 10	> 10	> 10	> 10	> 10	0	0	0	0	0
Nc1ccc([As](=O)(O)O)cc1 [arsanilic-acid]	108	81.2	86.6	81.9	95.8	114	87.2	101	98.1	97.7	110	103	98.2	99.3	104	107	107	104	97.5	103	99.5	98.8	95.4	97.1	96.4	> 10	> 10	> 10	> 10	> 10	6	0	0	0	0
O=[N+]([O-])c1ncc[nH]1 [azomycin-(2-nitroimidazole)]	109	104	107	87	108	100	102	94	92.5	99.8	104	104	102	107	93.8	89.5	88.7	94.9	98.6	101	99.6	102	101	100	100	> 10	> 10	> 10	> 10	> 10	0	0	0	0	0
NCC(CC(=O)O)c1ccc(Cl)cc1 (stereo not given) [baclofen]	98.6 ± 7.2	99.5 ± 3.1	95 ± 7.8	97.5 ± 3.8	100 ± 5	98.9 ± 7.8	104 ± 5.4	98.6 ± 2	94.8 ± 4.7	104 ± 4.7	101 ± 2.9	104 ± 9.8	106.2 ± 0.99	102 ± 7.6	99.8 ± 1.3	96.8 ± 1.1	101 ± 2.5	95.5 ± 2.3	101 ± 5.4	98.8 ± 8	97.75 ± 0.071	96.8 ± 1.7	99.7 ± 3.2	96.8 ± 3.8	104 ± 6.9	> 10	> 10	> 10	> 10	> 10	0	0	0	0	0
NS(=O)(=O)c1cc2c(cc1Cl)N=C(CSCc1ccccc1)NS2(=O)=O [benzthiazide]	103	101	93.2	96.2	80.7	84.5	104	101	106	101	105	86	101	94.3	89.7	100	98.8	94.6	98.4	96	102	98.5	98.4	101	98.9	> 10	> 10	> 10	> 10	> 10	0.9	0	0	0	0
COc1c2ccoc2cc2oc(=O)ccc12 [bergapten]	82.4	94.1	94.3	99.4	88.3	105	119	108	103	99	95.7	85.8	90	102	96.3	95.4	106	93.2	97.4	102	103	105	99.8	98.4	82	> 10	> 10	> 10	> 10	> 10	0	0	0	0	0.6
C=C(C)[C@@H]1CC[C@]2(C(=O)O)CC[C@]3(C)[C@H](CC[C@@H]4[C@@]5(C)CC[C@H](OC(=O)CC(C)(C)C(=O)O)C(C)(C)[C@@H]5CC[C@]43C)[C@@H]12 [bevirimat-dimeglumine]	92	95.6	94.1	102	94.9	99.1	103	102	92.9	110	91.3	99.5	103	94.1	96.7	99.4	98.5	99.6	98.2	96.8	96.8	103	96.9	94.7	102	> 10	> 10	> 10	> 10	> 10	0	0	0	0	0
